In ChEMBL document CHEMBL5050844 (2019):

What was measured:
[1] = Induction of anti-CD3/CD28 antibodies-stimulated human T cell activation at 4 uM assessed fold increase in IL-2 secretion measured by ELISA assay; assay type: functional, T cell line
[2] = Induction of anti-CD3 antibodies-stimulated human T cell activation at 8 uM assessed fold increase in IL-2 secretion measured by ELISA assay; assay type: functional, T cell line; note: reference of the scale not given here
[3] = Induction of anti-CD3 antibodies-stimulated human T cell activation at 1 uM assessed fold increase in IL-2 secretion measured by ELISA assay; assay type: functional, T cell line; note: reference of the scale not given here
[4] = Induction of anti-CD3/CD28 antibodies-stimulated human T cell activation at 0.3 uM assessed fold increase in CD25 expression measured by ELISA assay; assay type: functional, T cell line
[5] = Induction of anti-CD3 antibodies-stimulated human T cell activation at 8 uM assessed fold increase in CD25 expression measured by ELISA assay; assay type: functional, T cell line; note: reference of the scale not given here
[6] = Induction of anti-CD3 antibodies-stimulated human T cell activation at 1 uM assessed fold increase in CD25 expression measured by ELISA assay; assay type: functional, T cell line; note: reference of the scale not given here
[7] = Induction of anti-CD3/CD28 antibodies-stimulated human CD4+ T cell activation at 10 uM assessed fold increase in CD69 expression measured by flow cytometry analysis; assay type: functional, T cell line
[8] = Induction of anti-CD3/CD28 antibodies-stimulated human CD4+ T cell activation at 1.11 uM assessed fold increase in CD69 expression measured by flow cytometry analysis; assay type: functional, T cell line
[9] = Induction of anti-CD3/CD28 antibodies-stimulated human CD4+ T cell activation at 10 uM assessed fold increase in cell proliferation measured by flow cytometry analysis; assay type: functional, T cell line
[10] = Induction of anti-CD3/CD28 antibodies-stimulated human CD4+ T cell activation at 1.11 uM assessed fold increase in cell proliferation measured by flow cytometry analysis; assay type: functional, T cell line
[11] = Induction of anti-CD3/CD28 antibodies-stimulated human CD8+ T cell activation at 1.11 uM assessed fold increase in CD69 expression measured by flow cytometry analysis; assay type: functional, T cell line
[12] = Induction of anti-CD3/CD28 antibodies-stimulated human CD8+ T cell activation at 10 uM assessed fold increase in cell proliferation measured by flow cytometry analysis; assay type: functional, T cell line
[13] = Induction of anti-CD3/CD28 antibodies-stimulated human CD8+ T cell activation at 1.11 uM assessed fold increase in cell proliferation measured by flow cytometry analysis; assay type: functional, T cell line
[14] = Induction of anti-CD3 antibodies-stimulated human CD4+ T cell activation at 10 uM assessed fold increase in CD69 expression measured by flow cytometry analysis; assay type: functional, T cell line; note: reference of the scale not given here
[15] = Induction of anti-CD3 antibodies-stimulated human CD4+ T cell activation at 1.11 uM assessed fold increase in CD69 expression measured by flow cytometry analysis; assay type: functional, T cell line; note: reference of the scale not given here
[16] = Induction of anti-CD3 antibodies-stimulated human CD8+ T cell activation at 10 uM assessed fold increase in CD69 expression measured by flow cytometry analysis; assay type: functional, T cell line; note: reference of the scale not given here
[17] = Induction of anti-CD3 antibodies-stimulated human CD8+ T cell activation at 1.11 uM assessed fold increase in CD69 expression measured by flow cytometry analysis; assay type: functional, T cell line; note: reference of the scale not given here
[18] = Induction of anti-CD3 antibodies-stimulated human CD8+ T cell activation at 10 uM assessed fold increase in cell proliferation measured by flow cytometry analysis; assay type: functional, T cell line; note: reference of the scale not given here
[19] = Induction of anti-CD3 antibodies-stimulated human T cell activation at 10 uM assessed fold increase in GM-CSF secretion measured by ELISA assay; assay type: functional, T cell line; note: reference of the scale not given here
[20] = Induction of anti-CD3 antibodies-stimulated human T cell activation at 1.11 uM assessed fold increase in GM-CSF secretion measured by ELISA assay; assay type: functional, T cell line; note: reference of the scale not given here
[21] = Induction of anti-CD3/CD28 antibodies-stimulated human T cell activation at 10 uM assessed fold increase in TNF-alpha secretion measured by ELISA assay; assay type: functional, T cell line
[22] = Induction of anti-CD3 antibodies-stimulated human T cell activation at 1.11 uM assessed fold increase in TNF-alpha secretion measured by ELISA assay; assay type: functional, T cell line; note: reference of the scale not given here
[23] = Induction of anti-CD3/CD28 antibodies-stimulated human T cell activation at 10 uM assessed fold increase in IFN-gamma secretion measured by ELISA assay; assay type: functional, T cell line
[24] = Induction of anti-CD3/CD28 antibodies-stimulated human T cell activation at 1.11 uM assessed fold increase in IFN-gamma secretion measured by ELISA assay; assay type: functional, T cell line
[25] = Induction of anti-CD3 antibodies-stimulated human T cell activation at 10 uM assessed fold increase in IFN-gamma secretion measured by ELISA assay; assay type: functional, T cell line; note: reference of the scale not given here
[26] = Induction of anti-CD3 antibodies-stimulated human T cell activation at 1.11 uM assessed fold increase in IFN-gamma secretion measured by ELISA assay; assay type: functional, T cell line; note: reference of the scale not given here
[27] = Induction of allogenic human T cell activation at 10 uM assessed fold increase in cell proliferation; assay type: functional, T cell line
[28] = Induction of anti-CD3 antibodies-stimulated human exhausted T cell activation assessed fold increase in IL-2 secretion measured by ELISA assay; assay type: functional, T cell line; note: reference of the scale not given here
[29] = Induction of anti-CD3 antibodies-stimulated human exhausted CD8+ T cell activation assessed fold increase in CTLA4 expression measured by flow cytometry analysis; assay type: functional, T cell line; note: reference of the scale not given here
[30] = Induction of anti-CD3/CD28 antibodies-stimulated human anergic T cell activation at 10 uM assessed fold increase in IFN-gamma secretion measured by ELISA assay; assay type: functional, T cell line
[31] = Induction of anti-CD3/CD28 antibodies-stimulated human anergic T cell activation at 1.11 uM assessed fold increase in IFN-gamma secretion measured by ELISA assay; assay type: functional, T cell line
[32] = Induction of anti-CD3/CD28 antibodies-stimulated human anergic T cell activation at 0.37 uM assessed fold increase in IFN-gamma secretion measured by ELISA assay; assay type: functional, T cell line
[33] = test system: B cell; experiment: Induction of anti-IgM-stimulated human CD20+ B cell activation at 10 to 1000 uM assessed as increase in CD69 expression measured as mean fluorescence intensity AUC by flow cytometry analysis; assay type: functional, cell-based; conditions: dose 10-1000 µM
[34] = Induction of activation of human CD56+ CD3- NK cells co-cultured with human K562 cells in 1:1 ratio and assessed as increase in IFN-gamma secretion at 10 uM measured by ELISA assay; assay type: functional, Natural killer cell
[35] = Induction of activation of human CD56+ CD3- NK cells co-cultured with human K562 cells in 1:1 ratio and assessed as increase in TNF-alpha secretion at 10 uM measured by ELISA assay; assay type: functional, Natural killer cell
[36] = Induction of activation of human CD56+ CD3- NK cells co-cultured with human K562 cells in 1:1 ratio and assessed as increase in IFN-gamma secretion at 2.5 uM measured by ELISA assay; assay type: functional, Natural killer cell
[37] = Induction of activation of human CD56+ CD3- NK cells co-cultured with human K562 cells in 1:1 ratio and assessed as increase in TNF-alpha secretion at 2.5 uM measured by ELISA assay; assay type: functional, Natural killer cell
[38] = Induction of activation of human CD56+ CD3- NK cells co-cultured with human K562 cells in 1:1 ratio and assessed as increase in TNF-alpha secretion at 0.625 uM measured by ELISA assay; assay type: functional, Natural killer cell

Row | Structure (SMILES) | fold change (FC) [1] | fold change (FC) [2] | fold change (FC) [3] | fold change (FC) [4] | fold change (FC) [5] | fold change (FC) [6] | fold change (FC) [7] | fold change (FC) [8] | fold change (FC) [9] | fold change (FC) [10] | fold change (FC) [11] | fold change (FC) [12] | fold change (FC) [13] | fold change (FC) [14] | fold change (FC) [15] | fold change (FC) [16] | fold change (FC) [17] | fold change (FC) [18] | fold change (FC) [19] | fold change (FC) [20] | also measured
1 | Cn1cnnc1CC1(c2cccc(N3Cc4c(cc(CN5CC(F)C5)cc4C(F)(F)F)C3=O)c2)COC1 | >=7.5 | >=0.201 | 0.151 | 1.31 | >=1.001 | >=1.001 | 1.401 | 1.201 | >4 | >4 | 1.201 | >4 | 3.01 | >1.601 | >1.601 | 1.401 | 1.201 | >4 | >4 | 2.01 | fold change (FC) [21]: 2.01; fold change (FC) [22]: 1.51; fold change (FC) [23]: >4; fold change (FC) [24]: 3.01; fold change (FC) [25]: >4; fold change (FC) [26]: 2.01; fold change (FC) [27]: >3; fold change (FC) [28]: <=2.5; fold change (FC) [29]: >1.61; fold change (FC) [30]: >4.01; fold change (FC) [31]: 2.51; fold change (FC) [32]: 2.51; AUC [33]: 1.01; fold change (FC) [34]: >=5; fold change (FC) [35]: 2.01; fold change (FC) [36]: 2.01; fold change (FC) [37]: 2.01; fold change (FC) [38]: 1.01
2 | C[C@H](Cc1nncn1C)c1cccc(NC(=O)c2cc3cc(N4CCNCC4)ccc3cn2)c1.Cl | 2.51 | 0.101 | 0.101 | 1.01 | 0.801 | 0.801 | 1.401 | 1.201 | >4 | 3.01 | <=1.2 | 2.01 | 2.01 | 1.401 | 1.401 | 1.201 | <=1.2 | <=2 | 1.51 | 1.51 | fold change (FC) [21]: 1.51; fold change (FC) [22]: <=1.5; fold change (FC) [23]: <=2; fold change (FC) [24]: <=2; fold change (FC) [25]: <=2; fold change (FC) [26]: <=2; fold change (FC) [27]: <=2; fold change (FC) [28]: <=2.5; fold change (FC) [29]: 1.41; fold change (FC) [30]: 2.51; fold change (FC) [31]: <=2.5; fold change (FC) [32]: <=2.5; AUC [33]: 1.01; fold change (FC) [34]: 2.01; fold change (FC) [35]: 1.01; fold change (FC) [36]: <=1; fold change (FC) [37]: <=1; fold change (FC) [38]: <=1
